According to patent US8946302B2, “Selective sigma-1 receptor ligands” (Wisconsin Alumni Research Foundation, priority 2008, dated 2015):

Legend:
[1] = tested on: INa in neonatal mouse cardiac myocytes; experiment: Patch clamp INa in neonatal cardiac myocytes from WT and sigma-1 receptor KO mice; assay type: cell-based; settings: n=7
Description: Neonatal mouse cardiac myocytes were enzymatically isolated and cultured on laminin-coated glass coverslips as previously described (33, 34) with minor changes (26).
(§1) INa was recorded using whole-cell patch clamp at room temperature. All patch clamp solutions used as well as patch clamp methodology and instrumentation details are previously described (26) with the exception of testing INa inhibition with 100 μM DMT.

[2] = target: T1, sigma-1 receptor (Rattus norvegicus, UniProt Q9R0C9); experiment: Protection of [125I]-IACoc photolabeling in rat liver membranes; assay type: binding
T1 construct: from tissue; host or cells: rat liver membranes
Description: (§4) Rat liver membranes (100 μg/lane) were suspended in the presence or absence of the protecting drugs. […] Percent band intensities are shown compared to controls performed in the absence of protecting ligand (−).

[3] = tested on: WT and sigma-1 receptor knockout mice; experiment: Open-field hypermobility assay in WT and sigma-1 receptor KO mice; assay type: in vivo, mouse; settings: 2 mg/kg i.p. two hours after pargyline 75 mg/kg i.p.
Description: All mice were maintained on a normal light/dark cycle and handled in accordance with Animal Care and Use Guidelines of the University of Wisconsin, Madison. […] Mice were first acclimatized to the experimental room for one hour. WT and KO mice were injected with the monoamine oxidase inhibitor, pargyline (75 mg/kg, i.p.) two hours prior to DMT or vehicle injection(28). […] Each condition represents 8 to 14 mice (n=8-14). […] A computer program was used to quantitate movement and after each experiment, 70% ethanol was used to remove odors from the open-field.

[4] = tested on: hNav1.5; experiment: Patch clamp INa in COS-7 cells transiently transfected with hNav1.5; assay type: cell-based, human; settings: 100 μM, n=3
Description: (§2) To evaluate the capacity of DMT to induce physiological responses by binding to sigma receptors, the action of DMT on voltage-activated Na^+ current was examined. […] Application of 100 μM DMT inhibited INa by 62±3% (n=3), which reversed upon DMT removal. With hNav1.5 transiently transfected into COS-7 cells, 100 μM DMT inhibited INa by only 22±4% (n=3), but photolabeling has shown that these cells have much lower levels of endogenous sigma-1 receptor compared to HEK293 cells (26) (FIG. 7b).
(§3) HEK293 cells stably expressing hNav1.5 were provided by Dr. J. C. Makielski at the University of Wisconsin-Madison (32). COS-7 cells were transiently transfected with recombinant cDNA encoding hNav1.5 using Lipofectamine. Both cell types were cultured on glass coverslips at 37° C. in 5% CO2/air atmosphere, and used for electrophysiological recordings within 3-5 days.
as §1

[5] = target: sigma-1 receptor (Cavia porcellus, UniProt Q60492); experiment: Affinity for the sigma-1 receptor (Table 3); assay type: binding; design: from tissue
[6] = tested on: human cardiac Na+ channel hNav1.5; experiment: Patch clamp INa in HEK293 cells stably expressing hNav1.5; assay type: cell-based; settings: 100 μM, n=3
Description: as §2, §3, §1

[7] = target: T1, sigma-1 receptor; experiment: Protection of [125I]IAF photolabeling of the sigma-1 receptor in rat liver membranes; assay type: binding
Description: as §4

T1 sequence (Q9R0C9 whole entry): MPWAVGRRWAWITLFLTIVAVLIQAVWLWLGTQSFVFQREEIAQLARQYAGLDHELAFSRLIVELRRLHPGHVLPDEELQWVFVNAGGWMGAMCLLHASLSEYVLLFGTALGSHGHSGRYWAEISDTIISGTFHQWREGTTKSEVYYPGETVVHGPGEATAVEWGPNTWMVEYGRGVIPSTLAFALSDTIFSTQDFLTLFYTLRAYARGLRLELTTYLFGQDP
Chain of sigma-1 receptor (Cavia porcellus, UniProt Q60492) (Q60492 whole entry): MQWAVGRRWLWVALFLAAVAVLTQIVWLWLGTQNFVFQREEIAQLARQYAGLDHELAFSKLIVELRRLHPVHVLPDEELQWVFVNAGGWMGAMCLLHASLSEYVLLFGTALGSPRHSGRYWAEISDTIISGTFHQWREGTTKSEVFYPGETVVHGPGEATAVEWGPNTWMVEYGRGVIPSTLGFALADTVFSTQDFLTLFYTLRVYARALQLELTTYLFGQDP

For `CN(C)CCc1c[nH]c2ccccc12` [DMT, 2-(1H-indol-3-yl)-N,N-dimethylethylamine], the inhibition at 100 µM ([1]; KO myocytes) was 7 ± 2%, the inhibition at 100 µM ([1]; WT neonatal cardiac myocytes) was 29 ± 3% and the “protection of [125I]-IACoc photolabeling of the 26 kDa sigma-1 receptor” value ([2]; 50 μM) was 61%. The “protection of [125I]-IACoc photolabeling of the 26 kDa sigma-1 receptor” value ([2]; 100 μM) was roughly 100%, the “distance traveled in open-field assay (hypermobility)” value ([3]; WT mice) was 7025±524.1 cm and the “distance traveled in open-field assay (hypermobility)” value ([3]; sigma-1 receptor KO mice) was 2328±322.9 cm. For the same compound, the “inhibition of INa” value [4] was 22±4%, the Kd [5] was 14.6 µM and the “inhibition of INa” value [6] was 62±3%. The “protection of [125I]IAF photolabeling of the sigma-1 receptor” value (shortened to “protection … of the sigma-1 receptor”) ([7]; 10 μM) was 31%, the “protection … of the sigma-1 receptor” value ([7]; 50 μM) was 43% and the “protection … of the sigma-1 receptor” value ([7]; 100 μM) was 69%.
